pEC50: −log10 of the molar value.
What was measured:
Assay type in all cases: cell-based
SW480 colon cancer cells = assay: Cell viability assay (CellTiter-Blue); conditions: Homo sapiens, 96 h; SW480 cell viability, four days, CellTiter-Blue
Experimental: Representative compounds were screened using the following assay procedure to assess the effect on cell viability as described below.
Approximately 2×10^3 SW480 colon cancer cells were seeded into each well and allowed to incubate in the presence or absence of compound for four days at 37° C./5% CO2. Eight replicates of DMSO-treated cells served as controls and cells treated with compound were performed in duplicate.
After incubation, 20 μL of CellTiter-Blue (Promega) was added to each well allowed to incubate for approximately 3 hours. This reagent was a buffered solution which contains resazurin, metabolically active cells were able to reduce rezarurin (blue) into resorufin (pink) which was highly fluorescent. This measured fluorescence was used as a readout for cell viability.

[1] = test system: Wnt activity (Sp5-Luc reporter, SW480 colon carcinoma cells); assay: Screening assay for Wnt activity (Sp5-Luc reporter gene assay in SW480 cells); conditions: Homo sapiens; Sp5-Luc reporter, SW480 cells, incubated overnight
Description: The screening assay for Wnt activity is described as follows. Reporter cell lines can be generated by stably transducing cancer cell lines (e.g., colon cancer) or primary cells (e.g., IEC-6 intestinal cells) with a lentiviral construct that includes a Wnt-responsive promoter driving expression of the firefly luciferase gene.
SW480 colon carcinoma cells were transduced with a lentiviral vector expressing luciferase with a human Sp5 promoter consisting of a sequence of eight TCF/LEF binding sites. SW480 cells stably expressing the Sp5-Luc reporter gene and a hygromycin resistance gene were selected by treatment with 150 μg/mL of hygromycin for 7 days. These stably transduced SW480 cells were expanded in cell culture and used for all further screening activities. […] For Sp5-Luc reporter gene assays, the cells were plated at 4,000 cells/well in 384-well plates with medium containing 1% fetal bovine serum and incubated overnight at 37° C. and 5% CO2. Following incubation, 20 μl of BrightGlo luminescence reagent (Promega) was added to each well of the 384-well assay plates. The plates were placed on an orbital shaker for 2 min and then luminescence was quantified using the Envision (Perkin Elmer) plate reader. Readings were normalized to DMSO only treated cells, and normalized activities were utilized for EC50 calculations using the dose-response log (inhibitor) vs. response-variable slope (four parameters) nonlinear regression feature available in GraphPad Prism 5.0 (or Dotmatics).

[2] = test system: primary human fibroblasts derived from IPF patients (LL29 cells) treated with TGF-β1; assay: Inhibition of the fibrotic process (αSMA staining) in TGF-β1-treated fibroblasts; conditions: Fibroblast, 96 h; for pEC50: % αSMA-positive LL29 cells, TGF-β1 20 ng/mL, 4 days
Experimental: Representative compounds were screened using primary human fibroblasts (derived from IPF patients) treated with TGF-β1 to determine their ability to inhibit the fibrotic process.
LL29 cells are plated at 1,500 cells/well in 80 μL/well F12 medium supplemented with 1% Fetal Bovine Serum. […] Wells treated with TGF-P1 and containing DMSO were used as controls. […] Following incubation for 4 days, SYTOX green nucleic acid stain (Life Technologies [Thermo Fisher Scientific]) was added to the wells at a final concentration of 1 μM and incubated at room temperature for 30 min.

IL-6 (THP-1 cells) = assay: IL-6 inhibition in LPS-stimulated THP-1 cells (HTRF); conditions: Homo sapiens; for pEC50: IL6 by HTRF, THP-1 cells, 500 ng/mL LPS, 22 hours; for inhibition at 10 µM: THP-1, read-out: percent inhibition at 10 M
Experimental: THP-1 cells were cultured in basal media with 1% FBS for 24 hours before the start of the assay. […] THP-1 cells were plated at 5000 cells/well in the 384-well plates and incubated at 37° C. for 2 h. 500 ng/mL of LPS was added after 2 hours and cells were incubated for another 22 hours at 37° C. Plates were spun in a centrifuge for 1 minute at […] and a mixture of anti-IL6 XL665, and anti-IL6 Cryptate diluted in reconstitution buffer (Cisbio Inc.) was added to each well. Following incubation for 3 hrs at room temperature, Homogeneous Time-Resolved Fluorescence (HTRF) was measured using the Envision (Perkin Elmer) at 665 nm and […]. The ratio of fluorescence at 665 nm to 620 nm was used as a readout for IL6 quantification. All samples were processed in duplicate. Readings were normalized to DMSO treated cells and normalized activities were utilized for EC50 calculations using the dose-response log (inhibitor) vs. response-variable slope (four parameters) nonlinear regression feature available in GraphPad Prism 5.0 (or Dotmatics).

SMILES	pEC50 (SW480 colon cancer cells)	pEC50 [1]	pEC50 (IL-6 (THP-1 cells))	pEC50 [2]	inhibition at 10 µM (IL-6 (THP-1 cells)) [%]	inhibition at 10 µM ([2]; read-out: percent inhibition at 10 μM) [%]
CCCC(=O)Nc1cncc(-c2ccc3[nH]nc(-c4cc5cnccc5[nH]4)c3c2)c1 [Compound 269, N-(5-(3-(1H-Pyrrolo[3,2-c]pyridin-2-yl)-1H-indazol-5-yl)pyridin-3-yl) butyramide]	6.34	6.98	6.81	6.83	–	–
c1cncc(-c2ccc3[nH]nc(-c4cc5c(-c6ccsc6)nccc5[nH]4)c3c2)c1 [Compound 284, 5-(Pyridin-3-yl)-3-(4-(thiophen-3-yl)-1H-pyrrolo[3,2-c]pyridin-2-yl)-1H-indazole]	6.18	5.90	5.96	6.19	–	–
c1ccc(-c2ccc3[nH]nc(-c4cc5c(-c6cccs6)nccc5[nH]4)c3c2)nc1 [Compound 364, 5-(Pyridin-2-yl)-3-(4-(thiophen-2-yl)-1H-pyrrolo[3,2-c]pyridin-2-yl)-1H-indazole]	5.72	5.65	< 5.00	5.75	44	–
CC(C)CC(=O)Nc1cncc(-c2ccc3[nH]nc(-c4cc5c(-c6cc(F)cc(CNS(C)(=O)=O)c6)nccc5[nH]4)c3c2)c1 [Compound 478, N-(5-(3-(4-(3-Fluoro-5-(methylsulfonamidomethyl)phenyl)-1H-pyrrolo[3,2-c]pyridin-2-yl)-1H-indazol-5-yl)pyridin-3-yl)-3-methylbutanamide]	5.97	6.24	6.94	5.63	–	–
CS(=O)(=O)NCc1cc(F)cc(-c2nccc3[nH]c(-c4n[nH]c5ccc(-c6cncc(NC(=O)C7CC7)c6)cc45)cc23)c1 [Compound 496, N-(5-(3-(4-(3-Fluoro-5-(methylsulfonamidomethyl)phenyl)-1H-pyrrolo[3,2-c]pyridin-2-yl)-1H-indazol-5-yl)pyridin-3-yl)cyclopropanecarboxamide]	6.03	6.43	6.86	5.29	–	–
CS(=O)(=O)NCc1cc(F)cc(-c2nccc3[nH]c(-c4n[nH]c5ccc(-c6cncc(NC(=O)C7CCC7)c6)cc45)cc23)c1 [Compound 497, N-(5-(3-(4-(3-Fluoro-5-(methylsulfonamidomethyl)phenyl)-1H-pyrrolo[3,2-c]pyridin-2-yl)-1H-indazol-5-yl)pyridin-3-yl)cyclobutanecarboxamide]	6.31	6.73	7.57	6.22	–	–
CS(=O)(=O)NCc1cc(F)cc(-c2nccc3[nH]c(-c4n[nH]c5ccc(-c6cncc(NC(=O)C7CCCC7)c6)cc45)cc23)c1 [Compound 498, N-(5-(3-(4-(3-Fluoro-5-(methylsulfonamidomethyl)phenyl)-1H-pyrrolo[3,2-c]pyridin-2-yl)-1H-indazol-5-yl)pyridin-3-yl)cyclopentanecarboxamide]	5.94	6.13	6.99	5.46	–	–
CS(=O)(=O)NCc1cc(F)cc(-c2nccc3[nH]c(-c4n[nH]c5ccc(-c6ccccn6)cc45)cc23)c1 [Compound 504, N-(3-Fluoro-5-(2-(5-(pyridin-2-yl)-1H-indazol-3-yl)-1H-pyrrolo[3,2-c]pyridin-4-yl)benzyl)methanesulfonamide]	5.26	5.44	< 5.00	5.67	40.6	–
Fc1cccc(-c2nccc3[nH]c(-c4n[nH]c5ccc(C6CCNCC6)cc45)cc23)c1 [Compound 505, 3-(4-(3-Fluorophenyl)-1H-pyrrolo[3,2-c]pyridin-2-yl)-5-(piperidin-4-yl)-1H-indazole]	5.42	5.44	6.14	5.48	–	–
Fc1ccc(-c2nccc3[nH]c(-c4n[nH]c5ccc(C6=CCNCC6)cc45)cc23)cc1 [Compound 522, 3-(4-(4-Fluorophenyl)-1H-pyrrolo[3,2-c]pyridin-2-yl)-5-(1,2,3,6-tetrahydropyridin-4-yl)-1H-indazole]	5.66	5.42	< 5.00	5.84	4.1	–

The next lines start with results.

pEC50 (SW480 colon cancer cells)	pEC50 [1]	pEC50 (IL-6 (THP-1 cells))	SMILES	pEC50 [2]	inhibition at 10 µM (IL-6 (THP-1 cells)) [%]	inhibition at 10 µM ([2]; read-out: percent inhibition at 10 μM) [%]
6.08	6.95	7.04	Fc1ccc(-c2nccc3[nH]c(-c4n[nH]c5ccc(-c6cn[nH]c6)cc45)cc23)cc1 [Compound 523, 3-(4-(4-Fluorophenyl)-1H-pyrrolo[3,2-c]pyridin-2-yl)-5-(1H-pyrazol-4-yl)-1H-indazole]	6.79	–	–
5.93	5.47	5.15	CN(C)CCOc1cncc(-c2ccc3[nH]nc(-c4cc5c(-c6ccc(F)cc6)nccc5[nH]4)c3c2)c1 [Compound 531, 2-((5-(3-(4-(4-fluorophenyl)-1H-pyrrolo[3,2-c]pyridin-2-yl)-1H-indazol-5-yl)pyridin-3-yl)oxy)-N,N-dimethylethan-1-amine]	6.04	–	–
5.58	5.63	5.60	Fc1ccccc1-c1nccc2[nH]c(-c3n[nH]c4ccc(-c5cncc(OC6CCNCC6)c5)cc34)cc12 [Compound 544, 3-(4-(2-Fluorophenyl)-1H-pyrrolo[3,2-c]pyridin-2-yl)-5-(5-(piperidin-4-yloxy)pyridin-3-yl)-1H-indazole]	< 5.00	–	0
6.35	7.23	7.05	Cn1cc(-c2ccc3[nH]nc(-c4cc5c(-c6cccnc6)nccc5[nH]4)c3c2)cn1 [Compound 556, 5-(1-Methyl-1H-pyrazol-4-yl)-3-(4-(pyridin-3-yl)-1H-pyrrolo[3,2-c]pyridin-2-yl)-1H-indazole]	7.54	–	–
5.56	5.75	7.18	NC1CN(c2cncc(-c3ccc4[nH]nc(-c5cc6c(N7CCCCC7)nccc6[nH]5)c4c3)n2)C1 [Compound 606, 1-(6-(3-(4-(Piperidin-1-yl)-1H-pyrrolo[3,2-c]pyridin-2-yl)-1H-indazol-5-yl)pyrazin-2-yl)azetidin-3-amine]	6.63	–	–
5.82	5.94	5.98	c1cc2[nH]c(-c3n[nH]c4ccc(-c5cncc(OC6CCCCC6)c5)cc34)cc2c(N2CCCCC2)n1 [Compound 607, 5-(5-(Cyclohexyloxy)pyridin-3-yl)-3-(4-(piperidin-1-yl)-1H-pyrrolo[3,2-c]pyridin-2-yl)-1H-indazole]	6.31	–	–
5.82	5.94	5.27	COc1cncc(-c2ccc3[nH]nc(-c4cc5c(-c6ccc(C)s6)nccc5[nH]4)c3c2)c1 [Compound 740, 5-(5-Methoxypyridin-3-yl)-3-(4-(5-methylthiophen-2-yl)-1H-pyrrolo[3,2-c]pyridin-2-yl)-1H-indazole]	6.35	–	–
6.03	5.99	< 5.00	CS(=O)(=O)NCc1cc(F)cc(-c2nccc3[nH]c(-c4n[nH]c5ccc(-c6cncc(OCc7ccccc7)c6)cc45)cc23)c1 [Compound 774, N-(3-(2-(5-(5-(Benzyloxy)pyridin-3-yl)-1H-indazol-3-yl)-1H-pyrrolo[3,2-c]pyridin-4-yl)-5-fluorobenzyl)methanesulfonamide]	5.64	42.4	–

Source: patent publication US10463651B2, “3-(1H-pyrrolo[3,2-C]pyridin-2-YL)-1H-indazoles and therapeutic uses thereof” (Samumed, LLC, priority 2015, dated 2019)
